Assays:
[1] = test system: Saccharomyces cerevisiae BY4741; experiment: Biocompatibility of solvents, shake flask studies (OD600 and glucose); format: cell-based; conditions: for Biocompatibility of the solvent (growth and glucose utilization versus control without solvent): S. cerevisiae BY4741, 25 mL solvent per 100 mL; for Glucose / OD600: 75 mL seed culture + 25 mL solvent, 30° C.
Protocol: The biocompatibility of each solvent was determined using shake flask studies with Saccharomyces cerevisiae BY4741 obtained from ATCC. Seed shake flasks containing 700 mL of yeast extract/peptone/dextrose (YPD) medium were inoculated with 200 μL of S. cerevisiae BY4741 inoculum and incubated overnight at 30° C. with shaking at 250 rpm until the OD600 reached about 0.5. Samples were withdrawn from the culture for measurement of OD600 using a spectrophotometer and glucose concentration using HPLC.
The resulting seed culture was divided into eight 125 mL flasks as follows. Into one flask, which served as a control, 100 mL of the seed culture was added. Into the remaining seven flasks, 75 mL of the seed culture and 25 mL of the solvent to be tested was added.

[2] = test system: Saccharomyces cerevisiae BY4741; experiment: Growth of Saccharomyces cerevisiae in the presence of isobutanol and oleyl alcohol (shake flask); format: cell-based
Protocol: The glucose consumption rate and the growth rate of wild-type Saccharomyces cerevisiae BY4741 strain were measured in shake flask cultures containing a high concentration of isobutanol in the presence of oleyl alcohol (Example 2) and the absence of oleyl alcohol (Example 3, Comparative).
Three seed shake flasks containing 600 mL of YPD medium were inoculated with 100, 300, and 1000 μL of Saccharomyces cerevisiae BY4741 inoculum, respectively. The flasks were incubated overnight at 30° C. with shaking at 250 rpm until the OD600 reached about 0.1. Samples were withdrawn from each culture and the OD600 and glucose concentration were measured as described above.
(§1) To a 125 mL flask was added 100 mL of the culture which was derived from the 300 μL inoculum (Example 3, Comparative). To another 125 mL flask was added 75 mL of the culture and 25 mL of oleyl alcohol (i.e., 25 vol %) (Example 2). The flasks were incubated at 30° C. with shaking at 100 rpm. Samples were withdrawn for OD600 and glucose measurement. When the OD600 reached about 0.4, isobutanol was added to both flasks to a final concentration of 30 g/L of the aqueous phase. A third flask containing 75 mL of the culture and 25 vol % of oleyl alcohol, but no added isobutanol, served as a positive control. Samples were withdrawn from all flasks at various times for the determination of OD600 and glucose concentration.

[3] = test system: Lactobacillus plantarum strain PN0512; experiment: Growth of Lactobacillus plantarum in the presence of isobutanol and oleyl alcohol (shake flask); format: cell-based
Protocol: The glucose consumption rate and the growth rate of Lactobacillus plantarum strain PN0512 were measured in shake flask cultures containing a high concentration of isobutanol in the presence of oleyl alcohol (Example 4) and the absence of oleyl alcohol (Example 5, Comparative).
Three seed shake flasks containing 50 mL of de Man-Rogosa-Sharpe (MRS) medium were inoculated with 200, 500, and 1000 μL, respectively, of Lactobacillus plantarum strain PN0512 inoculum (ATCC: PTA-7727, biological deposit made Jul. 12, 2006 for U.S. patent application Ser. No. 11/761,497). The flasks were incubated overnight at 30° C. with shaking at 250 rpm until the OD600 was between 2 and 5. A 1-L flask containing 600 mL of MRS medium was inoculated from one of the above seed flasks having an OD600=3 to an initial OD600=0.1 and cultivated at 30° C. with shaking at 180 rpm. After 4 to 5 hours of cultivation, the OD600 was between 0.5 and 1.0. Samples were withdrawn from each culture and the OD600 and glucose concentration were measured as described above.
as §1, with “culture” for “culture which was derived”, “above mentioned 1-L flask” for “300 μL inoculum”, “1.5,” for “0.4,”

[4] = Activity of the enzyme expressed from the sadB gene in cell-free extracts; format: biochemical, Achromobacter xylosoxidans; conditions: cell-free extracts of Mach1/pTrc99a::sadB, isobutyraldehyde as the standard
Protocol: The sadB coding region was then cloned into the vector pTrc99a (Amann et al., Gene 69: 301-315, 1988). The pCR4Blunt::sadB was digested with EcoRI, releasing the sadB fragment, which was ligated with EcoRI-digested pTrc99a to generate pTrc99a::sadB. This plasmid was transformed into E. coli Mach 1 cells and the resulting transformant was named Mach1/pTrc99a::sadB. The activity of the enzyme expressed from the sadB gene in these cells was determined to be 3.5 mmol/min/mg protein in cell-free extracts when analyzed using isobutyraldehyde as the standard.

[5] = Time 3 h after isobutanol addition
[6] = Time 4 h after isobutanol addition
[7] = Time 5 h after isobutanol addition
[8] = Time 14 h after isobutanol addition
[9] = isobutanol 30 g/L in the absence of oleyl alcohol
[10] = 25 vol % oleyl alcohol, isobutanol 30 g/L

Molecule | Biocompatibility of the solvent (growth and glucose utilization versus control without solvent) [1] | Glucose ([1]; t = 0) [g/L] | OD600 ([1]; t = 0) | OD600 ([1]; t = 4) | Glucose ([1]; t = 2 h) [g/L] | OD600 ([1]; t = 2 h) | Glucose ([1]; t = 4 h) [g/L] | Glucose ([1]; t = 6 h) [g/L] | OD600 ([1]; t = 6 h) | Glucose ([1]; t = 24 h) [g/L] | OD600 ([1]; t = 24 h) | also measured
CCCCCCCCCCO [Solvent 1-decanol, 1-decanol] | inhibited growth and glucose utilization | 17.5 | 0.5 | 0.7 | 16.6 | 0.5 | 17.0 | 17.8 | 0.6 | 17.6 | 0.8 | –
CCCCCCCC/C=C\CCCCCCCCO [Control, oleyl alcohol] | – | – | – | – | – | – | – | – | – | – | – | Glucose ([2]; Time 0 h (isobutanol addition)): 19.7 g/L; OD600 ([2]; Time 0 h (isobutanol addition)): 0.4; Glucose [2, 5]: 16.0 g/L; OD600 [2, 5]: 0.6; Glucose [2, 6]: 12.9 g/L; OD600 [2, 6]: 1.7; Glucose [2, 7]: 9.2 g/L; OD600 [2, 7]: 2.5; Glucose [2, 8]: 0.3 g/L; OD600 [2, 8]: 3.3; Glucose ([3]; Time 0 h (isobutanol addition)): 12.9 g/L; OD600 ([3]; Time 0 h (isobutanol addition)): 5.6; Glucose [3, 5]: 7.4 g/L; OD600 [3, 5]: 8.9; Glucose [3, 6]: 4.5 g/L; OD600 [3, 6]: 10.4; Glucose [3, 7]: 1.9 g/L; OD600 [3, 7]: 14.1; Glucose [3, 8]: 0 g/L; OD600 [3, 8]: 8.8
CC(C)CO [isobutanol] | – | – | – | – | – | – | – | – | – | – | – | Effect on glucose utilization and biomass growth [2, 9]: almost completely inhibited glucose utilization and biomass growth; Effect on glucose utilization and biomass growth [3, 9]: almost completely inhibited glucose utilization and biomass growth
CC(C)CO [Example 5, isobutanol] | – | – | – | – | – | – | – | – | – | – | – | Glucose ([3]; Time 0 h (isobutanol addition)): 12.7 g/L; OD600 ([3]; Time 0 h (isobutanol addition)): 5.7; Glucose [3, 5]: 11.7 g/L; OD600 [3, 5]: 6.8; Glucose [3, 6]: 11.7 g/L; OD600 [3, 6]: 6.9; Glucose [3, 7]: 11.7 g/L; OD600 [3, 7]: 7.2; Glucose [3, 8]: 11.6 g/L; OD600 [3, 8]: 5.3
CCCCCCCCCCCCO [Solvent 1-dodecanol, 1-dodecanol] | biocompatible | 17.5 | 0.5 | 1.6 | 15.4 | 0.9 | 11.6 | 3.9 | 2.8 | 0.0 | 4.2 | –
CCCCCCCCC=O [Solvent 1-nonanal, 1-nonanal] | inhibited growth and glucose utilization | 17.5 | 0.5 | 0.7 | 16.6 | 0.7 | 17.0 | 17.8 | 0.8 | 17.6 | 1.8 | –
CCCCCCCC/C=C\CCCCCCCC(=O)O [oleic acid] | biocompatible | 17.5 | 0.5 | 1.7 | 19.0 | 0.8 | – | 2.2 | 2.8 | 0.0 | 4.4 | –
CCCCCCCCCO [nonanol, 1-nonanol] | inhibited growth and glucose utilization | 17.5 | 0.5 | 0.7 | 17.0 | 0.5 | 16.9 | 18.1 | 0.6 | 17.8 | 0.7 | –
CC(C)CO [Example 3, isobutanol] | – | – | – | – | – | – | – | – | – | – | – | Glucose ([2]; Time 0 h (isobutanol addition)): 18.9 g/L; OD600 ([2]; Time 0 h (isobutanol addition)): 0.4; Glucose [2, 5]: 17.5 g/L; OD600 [2, 5]: 0.6; Glucose [2, 6]: 17.7 g/L; OD600 [2, 6]: 0.7; Glucose [2, 7]: 17.4 g/L; OD600 [2, 7]: 0.6; Glucose [2, 8]: 17.4 g/L; OD600 [2, 8]: 0.6
CCCCCCCC(=O)O [octanoic acid] | inhibited growth and glucose utilization | 17.5 | 0.5 | 0.8 | 17.1 | 0.9 | 17.6 | 19.2 | 0.7 | 18.5 | 1.0 | –
CCCCCCCC/C=C\CCCCCCCCO [oleyl alcohol] | biocompatible | 17.5 | 0.5 | 2.0 | 15.3 | 1.0 | 10.4 | 3.4 | 2.4 | 0.0 | 3.5 | Effect of oleyl alcohol on isobutanol toxicity [2, 10]: mitigates the toxicity of isobutanol; Effect of oleyl alcohol on isobutanol toxicity [3, 10]: mitigates the toxicity of isobutanol
sadB: butanol dehydrogenase from Achromobacter xylosoxidans (protein SEQ ID NO:10), expressed in E. coli Mach1/pTrc99a::sadB (protein, Achromobacter xylosoxidans) MKALVYHGDHKISLEDKPKPTLQKPTDVVVRVLKTTICGTDLGIYKGKNPEVADGRILGHEGVGVIEEVGESVTQFKKGDKVLISCVTSCGSCDYCKKQLYSHCRDGGWILGYMIDGVQAEYVRIPHADNSLYKIPQTIDDEIAVLLSDILPTGHEIGVQYGNVQPGDAVAIVGAGPVGMSVLLTAQFYSPSTIIVIDMDENRLQLAKELGATHTINSGTENVVEAVHRIAAEGVDVAIEAVGIPATWDICQEIVKPGAHIANVGVHGVKVDFEIQKLWIKNLTITTGLVNTNTTPMLMKVASTDKLPLKKMITHRFELAEIEHAYQVFLNGAKEKAMKIILSNAGAA | – | – | – | – | – | – | – | – | – | – | – | activity of the enzyme expressed from the sadB gene [4]: 3.5 mmol/min/mg protein

Reference: patent US8828695B2, “Method for producing butanol using two-phase extractive fermentation” (Butamax Advanced Biofuels LLC, priority 2008, dated 2014)
